Reference: PMC7526550, “Allosteric folding correction of F508del and rare CFTR mutants by elexacaftor-tezacaftor-ivacaftor (Trikafta) combination” (JCI Insight, 2020)

What was measured:
CFTR (F508del-NBD1-1S) = CFTR (F508del-NBD1-1S) (Homo sapiens, UniProt P13569, F494N/DEL508-508); parameters: SPR (Biacore T200) steady-state affinity of correctors to immobilized biotinylated CFTR NBD1; conditions: binder; read-out: ΔF508-NBD1-1S Mean KD
Experimental: (§1) As described in our previous publication ([21]), binding interactions between biotinylated NBD1 constructs (WT-1S-, F508del-1S-, F508del-3S-NBD1; ~30 kDa each) and corrector compounds were examined with a BIACORE T200 system (GE Healthcare Bio-Sciences AB; Control software v2.0 and Evaluation software v1.0). Briefly, neutravidin (2 mg/mL in water, diluted to 50 μg/mL in 10 mM sodium acetate, pH 5.0; Thermo Fisher Scientific) was amine-coupled to S-series CM5 sensors (~12,000 RU per flow cell) at 25°C using filtered (0.2 μm) and degassed HBS-EP buffer (10 mM HEPES, pH 7.4; 150 mM NaCl; 3 mM EDTA; 0.005% [v/v] Tween-20). After subsequent cooling to 4°C (sample chamber and sensor) and equilibration in PBS running buffer (1× PBS pH 7.4 containing 10% [v/v] glycerol, 2 mM MgCl2, 1 mM ATP, 0.05% [v/v] Tween-20), reference (neutravidin only) and active surfaces (100 μg/mL NBD1 constructs in PBS buffer; capture 5000–8000 RU each) were equilibrated in PBS buffer containing 2% (v/v) DMSO at 10 μL/min. The corrector compounds were titrated over reference and NBD1-immobilized surfaces at 25–50 μL/min (1–2 minutes association plus 2–5 minutes dissociation; 2-fold dilution series for all compounds). Between titration series, the surfaces were regenerated at 50 μL/min using two 30-second pulses of solution I (PBS-DMSO buffer containing 1.0 M NaCl and 0.05% [v/v] Empigen [Anatrace]). […]

CFTR (WT-NBD1-1S) = CFTR (WT-NBD1-1S) (Homo sapiens, UniProt P13569, F494N); assay: biochemical; parameters: SPR (Biacore T200) steady-state affinity of correctors to immobilized biotinylated CFTR NBD1
Chain of CFTR (WT-NBD1-1S) (P13569 389-678 F494N limits assumed): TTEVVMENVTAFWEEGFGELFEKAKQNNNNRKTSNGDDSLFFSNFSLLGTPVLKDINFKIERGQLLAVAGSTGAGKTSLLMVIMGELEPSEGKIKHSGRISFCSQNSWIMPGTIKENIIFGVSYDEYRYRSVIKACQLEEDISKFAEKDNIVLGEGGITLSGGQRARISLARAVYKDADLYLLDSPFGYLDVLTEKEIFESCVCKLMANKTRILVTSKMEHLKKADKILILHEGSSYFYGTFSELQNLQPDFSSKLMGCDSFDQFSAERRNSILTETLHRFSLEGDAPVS
Experimental: as §1

Chain of CFTR (F508del-NBD1-1S) (P13569 with tags, fused parts or gaps F494N/DEL508-508 limits assumed): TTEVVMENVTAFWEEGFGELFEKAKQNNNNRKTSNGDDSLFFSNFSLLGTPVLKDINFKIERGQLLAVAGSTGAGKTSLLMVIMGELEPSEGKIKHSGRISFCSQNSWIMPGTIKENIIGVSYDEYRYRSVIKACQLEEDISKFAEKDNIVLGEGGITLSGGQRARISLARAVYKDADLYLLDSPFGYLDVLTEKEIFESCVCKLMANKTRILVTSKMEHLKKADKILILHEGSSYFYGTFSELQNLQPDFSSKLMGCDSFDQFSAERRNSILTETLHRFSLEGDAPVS

For `CC(C)(CO)c1cc2cc(NC(=O)C3(c4ccc5c(c4)OC(F)(F)O5)CC3)c(F)cc2n1C[C@@H](O)CO` [VX-661, tezacaftor], which Kd (CFTR (F508del-NBD1-1S)) is on record?
The Kd was over 200 µM.

What about the Kd (CFTR (WT-NBD1-1S)) of the same molecule?
Its Kd is over 200 µM.

What does the source list for `Cc1nn(C)cc1S(=O)(=O)NC(=O)c1ccc(-n2ccc(OCC(C)(C)C(F)(F)F)n2)nc1N1C[C@@H](C)CC1(C)C` [compound 20, VX-445]?
Kd (CFTR (F508del-NBD1-1S)): 82 µM; Kd (CFTR (WT-NBD1-1S)): 76 µM
